Laboratory results: patent US7507727B2, “Substituted quinobenzoxazine analogs and methods of using thereof” (Cylene Pharmaceuticals, Inc., priority 2003, dated 2009)
Where two headings read alike, the source gives them in different places.

Tests used:
HeLa cells = test: MTS cell proliferation and/or cytotoxicity assay; type: cell-based, Human
Experimental: Cell culture. Human cervical epithelial cells (HeLa cells) were obtained from American Type Culture Collection (Manassas, Va.). Cells were grown in Eagle's minimum essential medium (MEM, Hyclone, Utah) supplemented with 2 mM Glutamine, 0.1 mM nonessential amino acid, 1 mM Na Pyruvate, 1.5 g/L NaHCO3, 50 mg/L gentamicin, and 10% fetal bovine serum (Hyclone, USA) in a humidified atmosphere of 5% CO2 at 37° C.
MTS assays. Antiproliferative effects of the compounds were tested by the CellTiter 96 AQueous assay (Promega, WI), which is a calorimetric assay for determining the number of viable cells. (See, e.g., Wang, L., et al., Methods Cell Sci (1996) 18:249-255). In one example, cells (4,500 cells/well) were seeded on 96 well flat bottom plates (Corning, N.Y.) in 100 μl of culture medium without any anticancer drug on day 0, and the culture medium was exchanged for that //contained anticancer drugs at various concentrations on day 1. After incubation for 3 days under normal growth conditions (on day 4), the monolayers were washed once in PBS, and the medium was switched to 100 μl of PBS in each of the 96 well plate. After mixing MTS and PMS at the ratio of 20:1, 20 μl of MTS/PMS solution was added to each of the 96 well plate and incubated for 4 hours in a humidified atmosphere of 5% CO2 at 37° C. The absorbance was read at 490 nm using FLUOstar Galaxy 96 well plate reader (BMG Labtechnologies, Germany). μM concentrations (MTS data) reported in Table 1 are concentrations at which 50% of antiproliferative cell response is seen.

[1] = molecular target: c-Myc template DNA (c-myc quadruplex); test: Quadruplex binding / stop assay (Taq polymerase arrest, capillary electrophoresis)
[2] = Homo sapiens, HeLa, 72 h, concentration at which 50% of antiproliferative cell response is seen, 3 days incubation, read-out: MTS Data Hella
[3] = read-out: Stop Data c-Myc μM, concentration at which 50% of the DNA was arrested (arrested:full-length 1:1)
[4] = Homo sapiens, HeLa, HeLa cells, MTS, read-out: Hela MTS
[5] = read-out: S DATA, Table 1D, stop assay data
[6] = concentration at which 50% of antiproliferative cell response is seen, 3 days incubation, read-out: MTS Data Hella

IC50 [1, 3] | IC50 [1, 5] | Compound | IC50 (HeLa cells; [2]) | IC50 (HeLa cells; [4]) | IC50 (HeLa cells; [6])
0.75 µM | – | N[C@@H]1CCN(c2c(F)cc3c(=O)c(C(=O)NCCCN4CCOCC4)cn4c3c2Oc2cc3ccccc3cc2-4)C1 [compound 386] | 340 nM | – | –
– | 0.18 µM | O=C(NCCN1CCCC1)c1cn2c3c(c(N4CC5CCCNC5C4)c(F)cc3c1=O)Oc1cc3ccccc3cc1-2 (centres unmarked) [compound 1635] | – | 300 nM | –
0.5 µM | – | CN1CCN(CCCNc2c(F)cc3c(=O)c(C(=O)NCCCn4ccnc4)cn4c3c2Oc2cc3c(cc2-4)oc2ccccc23)CC1 [compound 481] | 3600 nM | – | –
0.75 µM | – | CC(=O)N[C@@H]1CCC(c2c(F)cc3c(=O)c(C(=O)NCCN4CCCC4)cn4c3c2Oc2cc3c(cc2-4)oc2ccccc23)C1 (some centres unmarked) [compound 370] | 3500 nM | – | –
1 µM | – | CN1CCCC1CCNC(=O)c1cn2c3c(c(N4CCC(N)C4)c(F)cc3c1=O)Oc1cc(-c3nc4ccccc4s3)ccc1-2 (centres unmarked) [compound 311] | 2100 nM | – | –
2.5 µM | – | O=C(N[C@H]1C(O)O[C@H](CO)[C@H](O)[C@@H]1O)c1cn2c3c(c(NCCCN4CCOCC4)c(F)cc3c1=O)Oc1cc3c(cc1-2)oc1ccccc13 (some centres unmarked) [compound 37] | 2800 nM | – | –
– | 1.5 µM | CN1CCCC1CCNC(=O)c1cn2c3c(c(N)c(F)cc3c1=O)Oc1c-2ccc2ccccc12 (centres unmarked) [compound 1763] | – | 3800 nM | –
0.75 µM | – | CN(C)/C=N/CCCNC(=O)c1cn2c3c(c(N4CC[C@@H](N)C4)c(F)cc3c1=O)Oc1cc3ccccc3cc1-2 [compound 371] | 3500 nM | – | –
– | 0.75 µM | CN1CCCC1CCNC(=O)c1cn2c3c(c(NCC(O)c4ccccc4)c(F)cc3c1=O)Oc1cc3ccccc3cc1-2 (centres unmarked) [compound 1676] | – | 190 nM | –
0.375 µM | – | NCCCCNC(=O)c1cn2c3c(c(N4CC[C@@H](N)C4)c(F)cc3c1=O)Oc1cc3ccccc3cc1-2 [compound 528] | 750 nM | – | –
0.375 µM | – | NC(N)=NCCCNC(=O)c1cn2c3c(c(N4CC[C@@H](N)C4)c(F)cc3c1=O)Oc1cc3ccccc3cc1-2 [compound 512] | 3100 nM | – | –
1 µM | – | CN1CCCC1CCNC(=O)c1cn2c3c(c(NCCN4CCCC4)c(F)cc3c1=O)Oc1cc3c(cc1-2)oc1ccccc13 (centres unmarked) [compound 306] | 3200 nM | – | –
0.75 µM | – | O=C(NCCN1CCOCC1)c1cn2c3c(c(NCCCN4CCOCC4)c(F)cc3c1=O)Oc1cc3c(cc1-2)oc1ccccc13 [compound 361] | 4200 nM | – | –
0.75 µM | – | CN(C)CCCCNc1c(F)cc2c(=O)c(C(=O)NCCC3CCCN3C)cn3c2c1Oc1cc2c(cc1-3)oc1ccccc12 (centres unmarked) [compound 366] | 3700 nM | – | –
– | 0.64 µM | N=C(N)NCCNC(=O)c1cn2c3c(c(N4CC5CCCNC5C4)c(F)cc3c1=O)Oc1cc3ccccc3cc1-2 (centres unmarked) [compound 1646] | – | 400 nM | –
– | 0.37 µM | N=C(N)NCC1CCCC(CNC(=O)c2cn3c4c(c(N5CCC(N)C5)c(F)cc4c2=O)Oc2cc4ccccc4cc2-3)C1 (centres unmarked) [compound 1649] | – | 2200 nM | –
– | 2.6 µM | NC1CCN(c2c(F)cc3c(=O)c(C(=O)NCCN4CCCC4)cn4c3c2Oc2cc(Cl)ccc2-4)C1 (centres unmarked) [compound 1800] | – | 180 nM | –
0.75 µM | – | CN(C)CCCCNC(=O)c1cn2c3cc4oc5cc([N+](=O)[O-])ccc5[nH]c4cc3oc3c(NCCN4CCCC4)c(F)cc(c1=O)c32 [compound 359] | 4800 nM | – | –
– | 0.85 µM | CN1CCC[C@H]1CCNC(=O)c1cn2c3c(c(N4CCC(c5cnccn5)C4)c(F)cc3c1=O)Oc1cc3ccccc3cc1-2 (some centres unmarked) [compound 1742] | – | 3300 nM | –

IC50 [1, 3] | IC50 [1, 5] | Compound | IC50 (HeLa cells; [2]) | IC50 (HeLa cells; [4]) | IC50 (HeLa cells; [6])
0.75 µM | – | CN1CCN(CCC(=O)N[C@@H]2CCN(c3c(F)cc4c(=O)c(C(=O)NCCC5CCCN5C)cn5c4c3Oc3cc4c(cc3-5)oc3ccccc34)C2)CC1 (some centres unmarked) [compound 360] | 4500 nM | – | –
0.18 µM | – | CN(C)CCCCNC(=O)c1cn2c3cc4c(cc3oc3c(N5CC[C@H](N)C5)c(F)cc(c1=O)c32)c(=O)c1ccccc14 [compound 580] | 300 nM | – | –
0.5 µM | – | CC(C)(C)OC(=O)N[C@H]1CCN(c2c(F)cc3c(=O)c(C(=O)O)cn4c5cc6oc7cc([N+](=O)[O-])ccc7[nH]c6cc5oc2c34)C1 [compound 24] | 7000 nM | – | –
0.25 µM | – | O=C(NCCN1CCOCC1)c1cn2c3c(c(N4CC5CCCNC5C4)c(F)cc3c1=O)Oc1cc3ccccc3cc1-2 (centres unmarked) [compound 566] | 30 nM | – | –
1.5 µM | – | O=C(NCCN1CCCC1)c1cn2c3c(c(N4CCC(c5cnccn5)C4)ccc3c1=O)Oc1cc3ccccc3cc1-2 (centres unmarked) [compound 303] | 2100 nM | – | –
1 µM | – | COc1ccc(CCNc2c(F)cc3c(=O)c(C(=O)NCCC4CCCN4C)cn4c3c2Oc2cc3ccccc3cc2-4)cc1OC (centres unmarked) [compound 310] | 2300 nM | – | –
– | 0.25 µM | O=C(NCCN1CCOCC1)c1cn2c3c(c(N4CC5CCCNC5C4)c(F)cc3c1=O)Oc1cc3ccccc3cc1-2 (centres unmarked) [compound 1640] | – | 30 nM | –
– | 0.375 µM | CN1CCCC1CCNC(=O)c1cn2c3c(c(NCCc4c[nH]cn4)c(F)cc3c1=O)Oc1cc3ccccc3cc1-2 (centres unmarked) [compound 1657] | – | 500 nM | –
0.75 µM | – | CC1CCCCN1CCCNC(=O)c1cn2c3c(c(N4CCC(N)C4)c(F)cc3c1=O)Oc1cc3ccccc3cc1-2 (centres unmarked) [compound 387] | 330 nM | – | –
0.375 µM | – | CN1CCCC1CCNC(=O)c1cn2c3cc4c(cc3oc3c(NCCC5CCCN5C)c(F)cc(c1=O)c32)c(=O)c1ccccc14 (centres unmarked) [compound 514] | 2900 nM | – | –
– | 0.75 µM | CN1CCCC1CCNC(=O)c1cn2c3c(c(NCCc4ccc(O)cc4)c(F)cc3c1=O)Oc1cc3ccccc3cc1-2 (centres unmarked) [compound 1681] | – | 2100 nM | –
0.18 µM | – | NC(N)=NCCCCNC(=O)c1cn2c3c(c(N4CC[C@@H](N)C4)c(F)cc3c1=O)Oc1cc3ccccc3cc1-2 [compound 578] | 580 nM | – | –
3 µM | – | N[C@H]1CCN(c2c(F)cc3c(=O)c(C(=O)NCCN4CCCC4)cn4c3c2Oc2ccccc2-4)C1 [compound 35] | – | – | 210 nM
0.75 µM | – | CN1CCCC1CCNC(=O)c1cn2c3c(c(NCCc4ccc(O)cc4)c(F)cc3c1=O)Oc1cc3ccccc3cc1-2 (centres unmarked) [compound 378] | 2100 nM | – | –
3 µM | – | CN1CCCC1CCNC(=O)c1cn2c3c(c(NC[C@@H]4CCCO4)c(F)cc3c1=O)Oc1cc3ccccc3cc1-2 (some centres unmarked) [compound 33] | – | – | 290 nM
0.75 µM | – | CN1CCN(CCCNC(=O)c2cn3c4c(c(NCCC5CCCN5C)c(F)cc4c2=O)Oc2cc4c(cc2-3)oc2ccccc24)CC1 (centres unmarked) [compound 364] | 3800 nM | – | –
0.41 µM | – | CN(C)CCCCNc1c(F)cc2c(=O)c(C(=O)NCCC3CCCN3C)cn3c2c1Oc1c-3ccc2ccccc12 (centres unmarked) [compound 496] | 4000 nM | – | –
3 µM | – | CCN(CC)CCCC(C)NC(=O)c1cn2c3c(c(N4CCC(c5cnccn5)C4)c(F)cc3c1=O)Oc1cc3ccccc3cc1-2 (centres unmarked) [compound 27] | 3800 nM | – | –

Compound | IC50 [1, 3] | IC50 [1, 5] | IC50 (HeLa cells; [2]) | IC50 (HeLa cells; [4]) | IC50 (HeLa cells; [6])
CN1CCCC1CCNC(=O)c1cn2c3c(c(NC4CN5CCC4CC5)c(F)cc3c1=O)Oc1cc3ccccc3cc1-2 (centres unmarked) [compound 486] | 0.5 µM | – | 390 nM | – | –
CN1CCCC1CCNC(=O)c1cn2c3c(c(N4CCC(c5cnccn5)C4)c(F)cc3c1=O)Oc1cc3ccccc3cc1-2 (centres unmarked) [compound 516] | 0.375 µM | – | 2300 nM | – | –
CN1CCCC1CCNC(=O)c1cn2c3c(c(N[C@@H]4CN5CCC4CC5)c(F)cc3c1=O)Oc1cc3ccccc3cc1-2 (some centres unmarked) [compound 1497] | – | 0.5 µM | – | 390 nM | –
